Results on one compound are retold here after patent publication US8558004B2, “Reagents and kits for detection of influenza virus and the like” (priority 2007, dated 2013).

The test system of this experiment is influenza virus (A/WS/33). The conditions noted are these: FIG. 6.

Experimental: The protocol described here is a two-step assay, i.e., the neuraminidase reaction and firefly luciferase reaction are carried out sequentially in two steps. Approximately 1 μg of conjugate was incubated at 37° C. for 15 minutes with 0, 0.5, 5, 50, 500 or 5,000 TCID50 units of influenza virus (A/WS/33) in a 25 μL reaction solution (32.5 mM MES, pH 6.5, 4 mM CaCl2, 0.65% Triton X-100). 12.5 μL of the reaction solution was mixed with 100 μL of luciferase reaction solution (20 nM recombinant firefly luciferase, 4 mM ATP, 13.4 mM MgSO4, 100 mM Trizma, pH 7.9, 4% mannitol, and 1% sucrose) and measured for light signal using a luminometer (Sirius purchased from Berthold). Total light output was collected by integrating RLU over a period of 30 seconds.

On to `CC(=O)NC1C(O)CC(Oc2ccc3nc(C4=NC(C(=O)O)CS4)sc3c2)(C(=O)O)OC1C(O)C(O)CO` (centres unmarked) [N-acetylneuraminic acid-firefly luciferin conjugate], for which the “influenza virus input resulting in significantly more signal in comparison with the negative control” value (approx. 1 μg conjugate, 37° C., 15 minutes, pH 6.5, RLU integrated over 30 seconds) was determined as 50 TCID50 units. Besides, the “response of the signal to virus input” value (over the entire range tested (0.5 to 5,000 TCID50 units)) is “linear response”.
